US20120165304A1, “6,7,8,9-Tetrahydro-5H-1,4,7,10a-tetraaza-cyclohept[f]indene derivatives, pharmaceutical compositions containing these compounds, their use and processes for preparing them” (BOEHRINGER INGELHEIM INTERNATIONAL GMBH, priority 2008, published 2012)

Molecular target: human 5-HT2C receptor (Homo sapiens, UniProt P28335, I156V/I160V/N158S)
Assay: cell-based

human 5-HT2C receptor, sequence (P28335 33-458 I156V/N158S/I160V limits assumed): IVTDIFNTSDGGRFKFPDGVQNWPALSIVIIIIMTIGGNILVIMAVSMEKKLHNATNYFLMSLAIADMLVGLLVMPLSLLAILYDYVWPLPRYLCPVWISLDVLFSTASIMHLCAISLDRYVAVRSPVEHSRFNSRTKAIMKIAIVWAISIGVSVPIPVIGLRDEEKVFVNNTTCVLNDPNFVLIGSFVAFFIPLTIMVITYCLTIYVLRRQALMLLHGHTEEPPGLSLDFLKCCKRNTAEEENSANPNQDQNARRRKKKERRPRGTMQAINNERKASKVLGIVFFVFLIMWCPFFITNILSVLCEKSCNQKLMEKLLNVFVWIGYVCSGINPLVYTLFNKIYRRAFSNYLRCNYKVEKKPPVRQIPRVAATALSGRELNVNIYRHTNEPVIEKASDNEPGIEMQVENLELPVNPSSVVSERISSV

Work on `O=C1CN(C(=O)C2CN(c3c4c(nc5ccnn35)CCNCC4)C2)CCN1` [Example 37.12] yielded an EC50 of 27 nM.
Compound `O=C(C1CN(c2c3c(nc4ccnn24)CCNCC3)C1)N1CC(F)(F)C(F)(F)C1` [Example 31.200] has an EC50 of 28 nM.
`O=C(NC1CCCOC1)C1CN(c2c3c(nc4ccnn24)CCNCC3)C1` (stereo not shown) [Example 37.49] showed an EC50 of 44 nM.
`O=C(C1CN(c2c3c(nc4ccnn24)CCNCC3)C1)N1CCC(F)(F)C1` [Example 31.148] was tested, and the EC50 was 19 nM.
Compound `CO[C@@H]1CCN(C(=O)C2CN(c3c4c(nc5ccnn35)CCN(C)CC4)C2)C1` [Example 36.38] has an EC50 of 86 nM.
Work on `O=C(C1CN(c2c3c(nc4ccnn24)CCNCC3)C1)N(Cc1ccccc1)Cc1ccc(F)cc1` [Example 31.197] yielded an EC50 of 122 nM.
In the case of `O=C(C1CN(c2c3c(nc4ccnn24)CCNCC3)C1)N1CCC2(CC2)C1` [Example 31.14], the EC50 is reported as 87 nM.
`Cc1cc(OC2CN(c3c4c(nc5ccnn35)CCNCC4)C2)cc(C)n1` [Example 35.23] was tested, and the EC50 was 105 nM.
For `CN(Cc1ccc(Cl)cc1)C(=O)C1CN(c2c3c(nc4ccnn24)CCNCC3)C1` [Example 31.40], the EC50 was 40 nM.
`CN1CCc2nc3ccnn3c(N3CC(C(=O)NCC4CCN(C)CC4)C3)c2CC1` [Example 36.3] showed an EC50 of 108 nM.
`O=C(C1CN(c2c3c(nc4ccnn24)CCNCC3)C1)N1CC[C@H](Oc2ccccc2)C1` [Example 31.212] showed an EC50 of 34 nM.
With `O=C(NC1CCCC1)C1CN(c2c3c(nc4ccnn24)CCNCC3)C1` [Example 31.18] the EC50 was 458 nM.
`O=C(C1CN(c2c3c(nc4ccnn24)CCNCC3)C1)N1CCc2cccc(Br)c2C1` [Example 31.207] showed an EC50 of 43 nM.
`COc1cc(Cl)ccc1OCC1CN(c2c3c(nc4ccnn24)CCNCC3)C1` [Example 15.26] showed an EC50 of 163 nM.
With `O=C(C1CN(c2c3c(nc4ccnn24)CCNCC3)C1)N1CCC(N2CCCC2)CC1` [Example 37.5] the EC50 was 2 nM.
Compound `FC(F)(F)c1ccccc1OC1CN(c2c3c(nc4ccnn24)CCNCC3)C1` [Example 35.31] has an EC50 of 129 nM.
`O=C(C1CN(c2c3c(nc4ccnn24)CCNCC3)C1)N1CCc2ccccc21` [Example 31.143] was tested, and the EC50 was 49 nM.
Work on `CC1CC(C)CN(C(=O)C2CN(c3c4c(nc5ccnn35)CCNCC4)C2)C1` (stereo not shown) [Example 31.22] yielded an EC50 of 85 nM.
For `Cc1ccc(C2CCN(C(=O)C3CN(c4c5c(nc6ccnn46)CCNCC5)C3)CC2)cc1` [Example 31.144], the EC50 was 66 nM.
In the case of `O=C(C1CN(c2c3c(nc4ccnn24)CCNCC3)C1)N1CCN(CC2CC2)CC1` [Example 37.17], the EC50 is reported as 3 nM.
`O=C(NCC1CCC1)C1CN(c2c3c(nc4ccnn24)CCNCC3)C1` [Example 37.50] was tested, and the EC50 was 51 nM.
For `COc1cccc(OC2CN(c3c4c(nc5ccnn35)CCNCC4)C2)c1` [Example 35.47], the EC50 was 66 nM.
`Fc1ccc2[nH]c(C3CN(c4c5c(nc6ccnn46)CCNCC5)C3)nc2c1F` [Example 34.23] showed an EC50 of 594 nM.
With `COc1ccc(OCC2CN(c3c4c(nc5ccnn35)CCNCC4)C2)cc1` [Example 15.3] the EC50 was 10 nM.
For `CC1CC(C)CC(N(C)C(=O)C2CN(c3c4c(nc5ccnn35)CCNCC4)C2)C1` (stereo not shown) [Example 31.216], the EC50 was 847 nM.
`O=C(C1CN(c2c3c(nc4ccnn24)CCNCC3)C1)N1CCC(c2ccccc2F)CC1` [Example 31.113] gave an EC50 of 27 nM.
For `Clc1cccc(OC2CN(c3c4c(nc5ccnn35)CCNCC4)C2)c1` [Example 35.50], the EC50 was 208 nM.
In the case of `CC1CNCCc2c1nc1c(Br)cnn1c2N1CCC1` (stereo not shown) [Example 4, 10-Azetidin-1-yl-3-bromo-5-methyl-6,7,8,9-tetrahydro-5H-1,4,7,10a-tetraaza-cyclohepta[f]indene], the EC50 is reported as 679 nM.
Compound `CN(Cc1cccc(C(F)(F)F)c1)C(=O)C1CN(c2c3c(nc4ccnn24)CCNCC3)C1` [Example 31.149] has an EC50 of 45 nM.
Work on `CC(C)c1ccc(OC2CN(c3c4c(nc5ccnn35)CCNCC4)C2)cc1` [Example 35.44] yielded an EC50 of 256 nM.
Compound `O=C(NCC1CC1)C1CN(c2c3c(nc4ccnn24)CCNCC3)C1` [Example 37.75] has an EC50 of 137 nM.
`O=C(C1CN(c2c3c(nc4ccnn24)CCNCC3)C1)N1CCNCC1` [Example 37.44] was tested, and the EC50 was 2 nM.
Compound `O=C(C1CN(c2c3c(nc4ccnn24)CCNCC3)C1)N1CCOCC1` [Example 31.17] has an EC50 of 276 nM.
`CC(CC1CCCCC1)NC(=O)C1CN(c2c3c(nc4ccnn24)CCNCC3)C1` (stereo not shown) [Example 37.108] showed an EC50 of 72 nM.
`CC1(C(=O)N2CCC3(CC2)OCc2ccccc23)CN(c2c3c(nc4ccnn24)CCNCC3)C1` [Example 32.5] gave an EC50 of 6550 nM.
In the case of `CC1(C)CC(NC(=O)C2CN(c3c4c(nc5ccnn35)CCNCC4)C2)CC(C)(C)N1` [Example 37.7], the EC50 is reported as 15 nM.
With `Cc1cnn2c(N3CC(C(=O)N4c5ccccc5CC4C)C3)c3c(nc12)CCNCC3` (stereo not shown) [Example 31.241] the EC50 was 84 nM.
Work on `CC(C)=CCN1CCC(NC(=O)C2CN(c3c4c(nc5ccnn35)CCNCC4)C2)CC1` [Example 43, 1-(6,7,8,9-Tetrahydro-5H-1,4,7,10a-tetraaza-cyclohept[f]inden-10-yl)-azetidine-3-carboxylic acid [1-(3-methyl-but-2-enyl)-piperidin-4-yl]-amide] yielded an EC50 of 8 nM.
Compound `Cc1cnn2c(N3CC(C(=O)N(C)Cc4ccc(C#N)cc4)C3)c3c(nc12)CCNCC3` [Example 31.250] has an EC50 of 9 nM.
`Cc1cc(C#N)cc(C)c1OC1CN(c2c3c(nc4ccnn24)CCNCC3)C1` [Example 35.15] showed an EC50 of 20 nM.
`COc1ccc2c(c1)CCN2C(=O)C1CN(c2c3c(nc4c(C)cnn24)CCNCC3)C1` [Example 31.247] gave an EC50 of 28 nM.
With `O=C(C1CN(c2c3c(nc4ccnn24)CCNCC3)C1)N1CCC(Oc2ccccn2)CC1` [Example 31.230] the EC50 was 54 nM.
`CO[C@H]1CCN(C(=O)C2CN(c3c4c(nc5ccnn35)CCN(C)CC4)C2)C1` [Example 36.41] gave an EC50 of 337 nM.
Compound `Cc1cccc(CN(C)C(=O)C2CN(c3c4c(nc5ccnn35)CCNCC4)C2)n1` [Example 31.208] has an EC50 of 62 nM.
Compound `FC(F)(F)c1cccc(OC2CN(c3c4c(nc5ccnn35)CCNCC4)C2)n1` [Example 20.10] has an EC50 of 181 nM.
`CC1CN(C(=O)C2CN(c3c4c(nc5ccnn35)CCNCC4)C2)CC(C)N1` (stereo not shown) [Example 37.13] gave an EC50 of 1 nM.
Work on `O=C(C1CN(c2c3c(nc4ccnn24)CCNCC3)C1)N1CCC(Cc2ccccc2)CC1` [Example 31.126] yielded an EC50 of 47 nM.
With `O=C(C1CN(c2c3c(nc4ccnn24)CCNCC3)C1)N1CCc2ccc(C(F)(F)F)cc21` [Example 31.157] the EC50 was 34 nM.
For `O=C(C1CN(c2c3c(nc4ccnn24)CCNCC3)C1)N1CCC(Oc2ccccc2)CC1` [Example 31.154], the EC50 was 40 nM.
With `CC1(C)CC2CC(C)(CN2C(=O)C2CN(c3c4c(nc5ccnn35)CCNCC4)C2)C1` (stereo not shown) [Example 31.25] the EC50 was 1510 nM.
Compound `O=C(NCc1ccccc1)C1CCN(c2c3c(nc4ccnn24)CCNCC3)CC1` [Example 1.24] has an EC50 of 1310 nM.
`Cc1ccc(OCC2CN(c3c4c(nc5ccnn35)CCNCC4)C2)cc1` [Example 15.18] gave an EC50 of 140 nM.
With `CN(CCC1CCCCC1)C(=O)C1CN(c2c3c(nc4ccnn24)CCNCC3)C1` [Example 31.84] the EC50 was 126 nM.
In the case of `CC(C)(C)N1CCC2(CCN(c3c4c(nc5ccnn35)CCNCC4)CC2)C1=O` [Example 1.65], the EC50 is reported as 4900 nM.
`CN(Cc1ccc(C#N)cc1)C(=O)C1CN(c2c3c(nc4c(Br)cnn24)CCNCC3)C1` [Example 31.139] was tested, and the EC50 was 16 nM.
With `c1cc(OC2CN(c3c4c(nc5ccnn35)CCNCC4)C2)c2ccncc2c1` [Example 35.16] the EC50 was 92 nM.
`CC1(C(=O)N2CCC(C(F)(F)F)CC2)CN(c2c3c(nc4ccnn24)CCNCC3)C1` [Example 32.2] was tested, and the EC50 was 8290 nM.
Work on `O=C(C1CN(c2c3c(nc4ccnn24)CCNCC3)C1)N1CCC(O)(c2cc(F)cc(F)c2)CC1` [Example 31.195] yielded an EC50 of 7 nM.
Compound `Cc1ccc(OCC2CN(c3c4c(nc5ccnn35)CCNCC4)C2)c(F)c1F` [Example 15.10] has an EC50 of 20 nM.
Compound `Cc1ccc(Cl)c(OC2CN(c3c4c(nc5ccnn35)CCNCC4)C2)c1` [Example 35.29] has an EC50 of 114 nM.
With `O=C(C1CN(c2c3c(nc4ccnn24)CCNCC3)C1)N1CCC1` [Example 31.7] the EC50 was 3300 nM.
In the case of `NC1CCN(C(=O)C2CN(c3c4c(nc5ccnn35)CCNCC4)C2)C1` (stereo not shown) [Example 37.16], the EC50 is reported as 5 nM.
Compound `CN1CCc2nc3ccnn3c(N3CC(C(=O)N4CCN(C5CCCC5)CC4)C3)c2CC1` [Example 36.13] has an EC50 of 114 nM.
`O=C(C1CN(c2c3c(nc4ccnn24)CCNCC3)C1)N1CCC(c2ccncc2)CC1` [Example 31.182] gave an EC50 of 9 nM.
For `O=C(NCC1CCCCC1)C1CN(c2c3c(nc4ccnn24)CCNCC3)C1` [Example 31.225], the EC50 was 111 nM.
`CC1CN(C(=O)C2CN(c3c4c(nc5c(Br)cnn35)CCNCC4)C2)CC(C)O1` (stereo not shown) [Example 31.140] was tested, and the EC50 was 65 nM.
Compound `FC(F)(F)Oc1ccc(OC2CN(c3c4c(nc5ccnn35)CCNCC4)C2)cc1` [Example 35.32] has an EC50 of 411 nM.
In the case of `Cc1cnn2c(N3CC(C(=O)N4CCC5(CC4)OCc4ccccc45)C3)c3c(nc12)CCNCC3` [Example 31.242], the EC50 is reported as 86 nM.
`c1cc2nc3c(c(C4CCC4)n2n1)CCNCC3` [Example 23, 10-Cyclobutyl-6,7,8,9-tetrahydro-5H-1,4,7,10a-tetraaza-cyclohepta[f]indene] was tested, and the EC50 was 114 nM.
Work on `CN1CCc2nc3ccnn3c(N3CC(C(=O)NC4CC(C)(C)N(C)C(C)(C)C4)C3)c2CC1` [Example 36.25] yielded an EC50 of 202 nM.
`CC(C)OCCNC(=O)C1CN(c2c3c(nc4ccnn24)CCNCC3)C1` [Example 37.96] showed an EC50 of 111 nM.
For `C=CCC1CN(C(=O)C2CN(c3c4c(nc5ccnn35)CCNCC4)C2)Cc2ccccc21` (stereo not shown) [Example 31.88], the EC50 was 71 nM.
In the case of `CN1CCc2nc3ccnn3c(N3CC(C(=O)N4CCN(CC5CC5)CC4)C3)c2CC1` [Example 36.18], the EC50 is reported as 77 nM.
Work on `O=C(N1CCOCC1)C1(c2ccccc2)CCN(c2c3c(nc4ccnn24)CCNCC3)CC1` [Example 1.54] yielded an EC50 of 1640 nM.
For `O=C(C1CN(c2c3c(nc4ccnn24)CCNCC3)C1)N1CCC(CCc2ccc(F)cc2)CC1` [Example 31.105], the EC50 was 111 nM.
`Cc1cc(Cl)ccc1OC1CN(c2c3c(nc4ccnn24)CCNCC3)C1` [Example 35.20] showed an EC50 of 326 nM.
Compound `CN(Cc1ccccc1)C(=O)C1CN(c2c3c(nc4ccnn24)CCNCC3)C1` [Example 31.19] has an EC50 of 50 nM.
With `CN1CCc2nc3ccnn3c(N3CC(C(=O)N4CCC(F)(F)CC4)C3)c2CC1` [Example 36.23] the EC50 was 124 nM.
`CN(C)CCNC(=O)C1CN(c2c3c(nc4ccnn24)CCNCC3)C1` [Example 37.74] gave an EC50 of 29 nM.
